ChEMBL document CHEMBL5325417, “Dual function of protein phosphatase 5 (PPP5C): An emerging therapeutic target for drug discovery” (Eur J Med Chem, 2023)
Numbering of substitutions follows the chain as printed. Starred links: 1 amine or outer side, 2 acyl side, 3 side chain; linkers in the order of their positions; H or OH if unused. Positions of bridges follow the written chain, without caps; N, C: chain ends. Non-standard residues stand in square brackets, D forms with d. Residues, ends and D or L forms follow the SMILES beside them. Adda = CO[C@@H](Cc1ccccc1)[C@@H](C)/C=C(C)/C=C/[C@H](N[*:1])[C@H](C)C(=O)[*:2]; dAsp(3S-Me) = C[C@H](C(=O)[*:3])[C@@H](N[*:1])C(=O)[*:2]; d(γGlu) = O=C(O)[C@@H](CCC(=O)[*:2])N[*:1]; NMeDha = C=C(NC)C(=O)O

What was measured:
[1] = target: T1, Serine/threonine-protein phosphatase 5 (Rattus norvegicus) (UniProt P53042); test: Activation of rat PPP5C (428 to 430 residues) phosphatase domain expressed in Escherichia coli BL21-codonplus (DE3)-RIL cells using para-nitrophenyl phosphate as substrate assessed as fold increase at 10^5 nM; details: filed as activator, dose 1.0 10^5nM
T1 sequence (whole entry): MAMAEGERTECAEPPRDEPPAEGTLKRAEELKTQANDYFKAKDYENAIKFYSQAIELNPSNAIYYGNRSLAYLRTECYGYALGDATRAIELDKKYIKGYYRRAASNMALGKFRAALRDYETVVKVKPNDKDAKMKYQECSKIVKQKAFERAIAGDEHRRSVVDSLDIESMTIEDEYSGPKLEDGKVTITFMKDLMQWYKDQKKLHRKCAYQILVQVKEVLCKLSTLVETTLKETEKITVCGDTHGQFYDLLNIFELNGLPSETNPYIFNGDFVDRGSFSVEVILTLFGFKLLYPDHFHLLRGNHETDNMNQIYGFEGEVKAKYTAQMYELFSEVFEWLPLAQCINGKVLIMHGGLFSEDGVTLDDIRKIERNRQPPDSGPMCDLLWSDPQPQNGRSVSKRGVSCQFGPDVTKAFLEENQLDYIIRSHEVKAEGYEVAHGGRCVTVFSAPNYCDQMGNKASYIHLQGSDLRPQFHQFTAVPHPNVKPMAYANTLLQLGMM

[2] = target: T2, Serine/threonine-protein phosphatase 5 (Rattus norvegicus, UniProt P53042); test: Binding affinity to rat PPP5C (428 to 430 residues) phosphatase domain expressed in Escherichia coli BL21-codonplus (DE3)-RIL cells using para-nitrophenyl phosphate as substrate assessed as dissociation constant at 10^5 nM
T2 sequence (P53042 whole entry): T1 sequence (whole entry)

[3] = target: T1, Serine/threonine-protein phosphatase 5 (Rattus norvegicus); test: Activation of rat PPP5C (428 to 430 residues) phosphatase domain expressed in Escherichia coli BL21-codonplus (DE3)-RIL cells using para-nitrophenyl phosphate as substrate assessed as fold change in maximum efficacy at 10^5 nM; details: filed as activator, dose 1.0 10^5nM
[4] = target: T3, Serine/threonine-protein phosphatase 5 (Homo sapiens, UniProt P53041); test: Activation of PPP5C (unknown origin) TPR domain
T3 sequence (P53041 whole entry): T1 sequence (whole entry) with E22D, T24A, N128H, S140N, R158K, T189S, D193E, C221S, V397I, Q419N

[5] = target: T3, Serine/threonine-protein phosphatase 5; test: Inhibition of PPP5C (unknown origin) phosphatase domain
[6] = target: T3, Serine/threonine-protein phosphatase 5; test: Inhibition of MBP fused recombinant human PPP5C phosphatase domain expressed in Escherichia coli using DiFMUP as substrate
[7] = Inhibition of bovine blood PP2A phosphatase domain expressed in Escherichia coli using DiFMUP as substrate; format: tissue-based, Bos taurus
[8] = Inhibition of PP1 (unknown origin) phosphatase domain; set-up: species or system Homo sapiens
[9] = target: T4, Serine/threonine-protein phosphatase 5 (Homo sapiens) (UniProt P53041); test: Activation of PPP5C (unknown origin) TPR domain assessed as fold change; details: filed as activator
T4 sequence (whole entry): T1 sequence (whole entry) with E22D, T24A, N128H, S140N, R158K, T189S, D193E, C221S, V397I, Q419N

[10] = target: T4, Serine/threonine-protein phosphatase 5 (Homo sapiens); test: Activation of Histidine-tagged human PPP5C TPR domain assessed as fold change at 10^5 nM; details: filed as activator, dose 1.0 10^5nM
[11] = target: T4, Serine/threonine-protein phosphatase 5 (Homo sapiens); test: Inhibition of N-terminally 6His-tagged full-length human PPP5C (1 to 499 residues) TPR domain expressed in Escherichia coli Rosetta gami2 (de3) pLysS cells using pNPP as substrate at 10^6 nM preincubated for 10 mins followed by substrate addition and measured for 60 mins relative to control; details: dose 1.0 10^6nM, time 70.0 min
[12] = Inhibition of PP3 (unknown origin) phosphatase domain; set-up: species or system Homo sapiens
[13] = Inhibition of PP6 (unknown origin) phosphatase domain; set-up: species or system Homo sapiens
[14] = Inhibition of PP2A (unknown origin) phosphatase domain; set-up: species or system Homo sapiens
[15] = Inhibition of PP4 (unknown origin) phosphatase domain using phosphohistone as substrate; set-up: species or system Homo sapiens
[16] = target: T5, Serine/threonine-protein phosphatase 4 catalytic subunit (Homo sapiens, UniProt P60510); test: Inhibition of PP4 (unknown origin) phosphatase domain
T5 sequence (P60510 whole entry): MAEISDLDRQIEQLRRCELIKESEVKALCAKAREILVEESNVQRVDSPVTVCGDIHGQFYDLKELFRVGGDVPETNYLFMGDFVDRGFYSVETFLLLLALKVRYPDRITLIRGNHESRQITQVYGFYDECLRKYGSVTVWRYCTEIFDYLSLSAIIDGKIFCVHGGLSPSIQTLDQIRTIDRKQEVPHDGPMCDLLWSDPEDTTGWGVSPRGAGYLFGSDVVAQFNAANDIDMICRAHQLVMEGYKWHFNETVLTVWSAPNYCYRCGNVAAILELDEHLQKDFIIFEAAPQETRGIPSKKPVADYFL

[17] = target: T6, Serine/threonine-protein phosphatase with EF-hands 1 (Homo sapiens, UniProt O14829); test: Inhibition of PP7 (unknown origin) phosphatase domain
T6 sequence (O14829 whole entry): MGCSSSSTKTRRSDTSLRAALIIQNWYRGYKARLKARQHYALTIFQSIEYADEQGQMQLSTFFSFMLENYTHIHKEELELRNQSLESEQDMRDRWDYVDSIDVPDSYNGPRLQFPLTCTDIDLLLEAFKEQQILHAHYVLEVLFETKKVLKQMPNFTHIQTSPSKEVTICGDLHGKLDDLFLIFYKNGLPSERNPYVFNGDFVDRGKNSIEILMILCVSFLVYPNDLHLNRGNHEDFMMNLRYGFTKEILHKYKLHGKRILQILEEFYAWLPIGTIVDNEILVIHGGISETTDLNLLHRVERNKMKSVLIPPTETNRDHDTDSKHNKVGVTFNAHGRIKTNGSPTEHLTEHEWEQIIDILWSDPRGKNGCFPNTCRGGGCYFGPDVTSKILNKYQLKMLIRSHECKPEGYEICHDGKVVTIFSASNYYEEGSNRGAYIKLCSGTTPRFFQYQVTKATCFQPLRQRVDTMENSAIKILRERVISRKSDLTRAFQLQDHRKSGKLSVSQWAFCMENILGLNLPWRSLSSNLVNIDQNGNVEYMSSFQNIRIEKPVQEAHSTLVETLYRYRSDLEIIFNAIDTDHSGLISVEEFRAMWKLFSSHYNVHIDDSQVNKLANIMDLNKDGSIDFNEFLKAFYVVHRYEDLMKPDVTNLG

[18] = Inhibition of PP2A (unknown origin) phosphatase domain using phosphohistone as substrate; set-up: species or system Homo sapiens

COc1ccc(-c2nc(Cc3ccc(Cl)cc3)no2)cc1OC
fold change (FC) [1]: 3.2 | Kd [2]: 7800 nM | fold change (FC) [3]: 3.9

O=C(O)CCCCCCCCCCCC[C@H]1C=CCC1
EC50 [4]: 134000 nM

CCCCO[C@H]1C[C@@H]2O[C@H]1[C@@H](C(=O)O)[C@H]2C(=O)O
IC50 [5]: 700 nM

CN1CCN(C(=O)[C@H]2[C@@H](C(=O)O)[C@@H]3CC[C@H]2O3)CC1
IC50 [6]: 1800 nM | IC50 [7]: 400 nM | IC50 [8]: 2.4 nM

C[C@H]1C[C@@H]2O[C@H]1[C@@H](C(=O)O)[C@H]2C(=O)O
IC50 [5]: 1000 nM

CCCCC/C=C\C/C=C\C/C=C\C/C=C\CCCC(=O)O
fold change (FC) [9]: 1.5

Cc1ccc(C(=O)Nc2ccc(S(=O)(=O)O)c3cc(S(=O)(=O)O)cc(S(=O)(=O)O)c23)cc1NC(=O)c1cccc(NC(=O)Nc2cccc(C(=O)Nc3cc(C(=O)Nc4ccc(S(=O)(=O)O)c5cc(S(=O)(=O)O)cc(S(=O)(=O)O)c45)ccc3C)c2)c1
fold change (FC) [10]: 4

Nc1ccc(-c2nc3ccc(-c4nc5ccc(N)cc5[nH]4)cc3[nH]2)cc1
inhibition [11]: > 40%

C[C@@]12C(=O)OC(=O)[C@]1(C)[C@H]1CC[C@@H]2O1 [CANTHARIDIN]
IC50 [12]: > 500000 nM | IC50 [8]: 1700 nM | IC50 [13]: 8000 nM | IC50 [14]: 160 nM | IC50 [15]: 50 nM

CC(C)(COP(=O)(O)OP(=O)(O)OC[C@H]1O[C@@H](n2cnc3c(N)ncnc32)[C@H](O)[C@@H]1OP(=O)(O)O)[C@@H](O)C(=O)NCCC(=O)NCCS [COENZYME_A]
EC50 [4]: 1000 nM

O=C1OC(=O)C2C3CCC(O3)C12 (stereo not given) [DEMETHYL-CANTHARIDIN]
IC50 [5]: 1000 nM

C[C@@](O)(/C=C/[C@H]1CC=CC(=O)O1)[C@@H](C[C@@H](O)\C=C/C=C\C=C\CO)OP(=O)(O)O [FOSTRIECIN]
IC50 [12]: > 100000 nM | IC50 [8]: > 100000 nM | IC50 [13]: 10 nM | IC50 [16]: 3 nM | IC50 [5]: > 1000 nM | IC50 [14]: 1.5 nM | IC50 [17]: > 1000 nM

C=C1C(=O)N[C@H](C)C(=O)N[C@@H](CC(C)C)C(=O)N[C@@H](C(=O)O)[C@H](C)C(=O)N[C@@H](CCCNC(=N)N)C(=O)N[C@@H](/C=C/C(C)=C/[C@H](C)[C@H](Cc2ccccc2)OC)[C@H](C)C(=O)N[C@@H](C(=O)O)CCC(=O)N1C [MICROCYSTIN-LR] (R[Adda][d(γGlu)][NMeDha][dA]L[dAsp(3S-Me)]-OH; lactam N-7)
IC50 [12]: 200 nM | IC50 [8]: 1.7 nM | IC50 [18]: 0.04 nM | IC50 [15]: 0.15 nM
